Experimental findings from patent publication US20260078119A1, “DEGRADER COMPOUNDS AND USES THEREOF” (Bristol-Myers Squibb Company, priority 2024, published 2026) are described below.

For one assay, the target named is T1, FAK (Homo sapiens, UniProt Q05397).
T1 construct: homozygous knock-in of a HiBiT tag (Promega Corporation, Madison, WI) to the C-terminus of the FAK gene in its natural genomic locus; endogenous in cells; host or cells: JHH-4-FAK-HiBiT clone d01 (CRISPR-Cas9 knock-in at the endogenous locus)
Nature of the assay: FAK-HiBiT Degradation Assay. The format is cell-based. The settings on record: for DC50: JHH-4-FAK-HiBiT clone d01 cells, two hours incubation, 10-point dose response, 3-fold dilution starting at 1 μM, Nano-Glo HiBiT luminescence, read-out: FAK HiBiT EC50; for FAK HiBiT Ymin: lower limit of the four parameter fit (value A), Ymax derived using DMSO control, JHH-4-FAK-HiBiT cells, two hours. Put shortly: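 JHH-4 cells with homozygous CRISPR knock-in of C-terminal HiBiT on endogenous FAK, treated 2 h at 37 °C with compounds in 10-point 3-fold series from 1 μM. HiBiT lytic luminescence read; EC50 from four-parameter logistic fit, Ymax set by DMSO control, Ymin as lower fit limit.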
(In general: The HiBiT peptide binds its large partner to form an active luciferase.)

A further assay relates to CAL-51 cells. Nature of the assay: CAL-51 Cell Proliferation Assay. The settings on record: for EC50: Homo sapiens, 120 hours incubation, 10-point dose response, 4-fold dilutions starting at 10 μM, Cell-Titer-Glo, read-out: CAL-51 Prolif EC50; for CAL-51 Prolif Ymin: minimal percent of DMSO control observed in the concentrations tested (Ymin-obs), 120 hours. The format is cell-based. Put shortly: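 Cells seeded at 350/well in RPMI complete medium onto 10-point, 4-fold compound dilutions from 10 μM (0.1% DMSO), in duplicate, and grown 120 h at 37 °C. CellTiter-Glo luminescence, blank-subtracted and normalised to DMSO, was fitted with a four-parameter logistic to give EC50; Ymin-obs is the lowest observed percent of DMSO control.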

T1 sequence (Q05397 whole entry): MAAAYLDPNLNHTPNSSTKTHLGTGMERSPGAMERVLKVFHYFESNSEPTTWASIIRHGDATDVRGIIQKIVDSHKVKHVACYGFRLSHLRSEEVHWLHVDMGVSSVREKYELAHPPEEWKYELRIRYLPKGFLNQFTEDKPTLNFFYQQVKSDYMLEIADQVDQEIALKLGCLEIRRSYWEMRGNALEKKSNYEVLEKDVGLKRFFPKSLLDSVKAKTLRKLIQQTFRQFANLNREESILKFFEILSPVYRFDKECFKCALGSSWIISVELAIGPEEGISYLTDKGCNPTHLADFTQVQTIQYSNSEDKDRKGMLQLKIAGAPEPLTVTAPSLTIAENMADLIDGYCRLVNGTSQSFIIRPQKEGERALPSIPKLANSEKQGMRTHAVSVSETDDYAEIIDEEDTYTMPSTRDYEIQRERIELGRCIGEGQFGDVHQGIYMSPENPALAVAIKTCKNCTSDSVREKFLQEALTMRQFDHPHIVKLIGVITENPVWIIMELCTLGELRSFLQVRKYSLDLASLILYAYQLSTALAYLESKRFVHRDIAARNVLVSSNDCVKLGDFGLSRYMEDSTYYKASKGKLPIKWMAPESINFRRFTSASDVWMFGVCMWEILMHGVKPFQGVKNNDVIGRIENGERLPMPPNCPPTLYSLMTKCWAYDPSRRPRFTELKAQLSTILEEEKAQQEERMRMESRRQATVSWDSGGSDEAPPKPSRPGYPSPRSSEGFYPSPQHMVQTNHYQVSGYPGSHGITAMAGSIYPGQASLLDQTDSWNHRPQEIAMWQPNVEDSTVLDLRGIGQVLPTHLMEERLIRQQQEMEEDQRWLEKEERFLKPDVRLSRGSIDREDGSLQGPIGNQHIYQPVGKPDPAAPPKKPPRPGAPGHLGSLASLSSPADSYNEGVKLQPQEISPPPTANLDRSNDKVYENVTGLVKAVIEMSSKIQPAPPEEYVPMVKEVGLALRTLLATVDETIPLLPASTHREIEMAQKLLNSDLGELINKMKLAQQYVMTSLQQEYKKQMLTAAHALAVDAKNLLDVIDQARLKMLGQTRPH

As a reminder, the EC50 is the concentration at which the effect is half-maximal. `Cc1cnc(-c2cc(N3CC(F)C3)nc3c2cnn3Cc2ccc3c(c2)CN(C2CCC(=O)NC2=O)C3=O)nc1` (centres unmarked) [Example 138, 3-(5-{[6-(3-fluoroazetidin-1-yl)-4-(5-methylpyrimidin-2-yl)-1H-pyrazolo[3,4-b]pyridin-1-yl]methyl}-1-oxo-2,3-dihydro-1H-isoindol-2-yl)piperidine-2,6-dione]: on FAK, the DC50 is at least 1000 nM and the “FAK HiBiT Ymin” value came out at 87.20. Also, in the assay on CAL-51 cells, the EC50 was 160 nM and the “CAL-51 Prolif Ymin” value was determined as 89.63.
As for `C[C@]1(O)CCN(c2nc3c(cnn3Cc3ccc4c(c3)CN([C@H]3CCC(=O)NC3=O)C4=O)c(-c3ncc(C(F)(F)F)cc3Cl)c2F)C1` [Example 140, (3S)-3-[5-({4-[3-chloro-5-(trifluoromethyl)pyridin-2-yl]-5-fluoro-6-[(3S)-3-hydroxy-3-methylpyrrolidin-1-yl]-1H-pyrazolo[3,4-b]pyridin-1-yl}methyl)-1-oxo-2,3-dihydro-1H-isoindol-2-yl]piperidine-2,6-dione], on FAK, the DC50 came to 3.11 nM and the “FAK HiBiT Ymin” value turned out to be 9.35. In the assay on CAL-51 cells, the EC50 was 2.2 nM and the “CAL-51 Prolif Ymin” value turned out to be 29.76.
The matching figures for `Cc1cc(F)cnc1-c1cc(N2CC(F)C2)nc2c1cnn2Cc1ccc2c(c1)CN([C@H]1CCC(=O)NC1=O)C2=O` [Example 144, (S)-3-(5-((4-(5-fluoro-3-methylpyridin-2-yl)-6-(3-fluoroazetidin-1-yl)-1H-pyrazolo[3,4-b]pyridin-1-yl)methyl)-1-oxoisoindolin-2-yl)piperidine-2,6-dione]: 10.1 nM, 11.17, 7.14 nM and 35.43.
The matching figures for `O=C1CC[C@H](N2Cc3cc(Cn4ncc5c(-c6ncc(C(F)(F)F)cc6Cl)cc(N6CC[C@H](CCO)C6)nc54)ccc3C2=O)C(=O)N1` [Example 145, (S)-3-(5-((4-(3-chloro-5-(trifluoromethyl)pyridin-2-yl)-6-((R)-3-(2-hydroxyethyl)pyrrolidin-1-yl)-1H-pyrazolo[3,4-b]pyridin-1-yl)methyl)-1-oxoisoindolin-2-yl)piperidine-2,6-dione]: 51.9 nM, 47.34, 74.8 nM and 66.44.
With `O=C1CC[C@H](N2Cc3cc(Cn4ncc5c(-c6ncc(C(F)(F)F)cc6Cl)cc(NCCF)nc54)ccc3C2=O)C(=O)N1` [Example 146, (S)-3-(5-((4-(3-chloro-5-(trifluoromethyl)pyridin-2-yl)-6-((2-fluoroethyl)amino)-1H-pyrazolo[3,4-b]pyridin-1-yl)methyl)-1-oxoisoindolin-2-yl)piperidine-2,6-dione], at FAK, the DC50 was 13.1 nM and the “FAK HiBiT Ymin” value is on record as 22.43. For the same compound, in the assay on CAL-51 cells, the EC50 came to 9.4 nM and the “CAL-51 Prolif Ymin” value is recorded as 57.23.
